According to patent publication US10954300B2, “Use of pentoxifylline with immune checkpoint-blockade therapies for the treatment of melanoma” (THE TRUSTEES OF COLUMBIA UNIVERSITY IN THE CITY OF NEW YORK, priority 2015, dated 2021):

Tested on: Treg cells
Assay: In vivo suppression (colitis) assay with PTXF-treated Treg cells
Parameters: species or system RAG1−/− mice
Details: Treg transferred with naïve Tconv cells
Protocol: Total cells suspensions were then activated with 5 μg/mL plate-coated anti-mCD3, 1 μg/ml soluble anti-mCD28 (BioLegend) and 10 ng/mL mIL-2, overnight at 37 C. Treg cells were then washed for further use. For in vitro assays, CD45.1^+ naïve conventional CD4+ T cells were magnetically isolated (Miltenyi) and labelled with CellTrace Violet Proliferation Tracker (Life Technologies). They were cultured with T-cell depleted, mitomycin C-treated WT splenocytes and 2.5 μg/mL anti-mCD3, in the presence or not of treated Treg cells as described above. Proliferation of CD45.1^+ T cells was assessed by FACS at D4. The % of suppression was calculated as described. For in vivo assays, 4.10^5 naïve Tconv cells were isolated as above and transferred with or without 1.10^5 Treg cells, to the retro-orbital sinus of 6-9 week-old RAG1^−/− mice. Recipients were then weighed every week and euthanized when weight loss was >30%.

CC(=O)CCCCn1c(=O)c2c(ncn2C)n(C)c1=O [PTXF, 1-(5-oxohexyl)-3,7-dimethylxanthine]
prevention of colitis by PTXF-treated Treg: completely failed to prevent colitis
